# Patent publication US7160732B2, “Fluorescein-based metal sensors, and methods of making and using the same” (Massachusetts Institute of Technology, priority 2000, dated 2007)
# Key:
# [1] = Zn^2+ affinity of reference chelator complexes; format: binding; conditions: pH 7
# Description: (§1) The fluorescent increase and binding affinity for Zn^2+ were characterized using a dual-metal single-ligand buffer system comprised of 1 mM EDTA, 2 mM Ca^2+ (or Mg^2+ up to 5 mM) and 0–1 mM total Zn^2+. […] The quantum yield of Formula 16 increases by ˜3.7-fold, and the integrated emission increases 6.0-fold.
# (§2) The Zn^2+ affinity of Formula 16 was determined by performing these measurements in triplicate using different Ca^2+/EDTA/Zn^2+ buffers (FIG. 3, left panel). The fluorescence response of the ligand of Formula 16 to the solutions was measured by excitation of the solution at 490 nm with 0.25 nm slit width and detecting the emission over 500 to 575 nm. The buffer solutions contained 100 mM KCl, 50 mM PIPES, pH=7.2 mM Ca2+, 1 mM EDTA and varying free Zn2+concentrations of 0, 0.172, 0.424, 0.787, 1.32, 2.11, 3.34, 5.60, 10.2, and 24.1 nM. The measurements indicate that Formula 16 has a Kd of 0.5±0.1 nM (mean ±esd), obtained by a hyperbolic fit to the plot of the area under each fluorescence peak versus the Zn2+ concentration at which it was measured (FIG. 3, right panel). […] The fluorescence response fits to a Hill coefficient of 1, consistent with the formation of a 1:1 ligand:Zn^2+ complex responsible for the enhancement.
# [2] = Excitation maximum and extinction coefficient, free and upon Zn^2+ complexation; format: physicochemical; conditions: pH 7
# Description: (§3) Absorption spectra were recorded on a Hewlett Packard 8453A diode array spectrophotometer under the control of a Pentium II-based PC running the Windows NT ChemStation software package, or a Cary 1E scanning spectrophotometer under the control of a Pentium PC running the manufacturer supplied software package. Spectra were routinely acquired at 25° C., maintained by a circulating water bath in 1 cm path length quartz cuvettes with a volume of 1.0 or 3.5 mL.
# (§4) Under pseudo physiological conditions (50 mM PIPES, 100 mM KCl) at pH 7 in the presence of EDTA to scavenge advantageous metal ions, Formula 16 has a quantum yield of 0.25. The quantum yield increases to 0.92 in the presence of 25 μM Zn^2+. The excitation maximum of Formula 16 shifts from 498 nm (ε=36.8×10^3 M^−1cm^−1) to 490 nm (ε=44.9×10^3 M^−1cm^−1) upon Zn^2+ complexation. The slight hypsochromatic shift in the absorption wavelength is indicative of the coordination of the donor group (phenol) to Zn^2+. Since the phenol is incorporated in the π-system of the fluorophore, coordination to a metal would be expected to perturb the electronic structure of the system and produce a shift in the excitation wavelength. […] Under most conditions, cadmium concentrations are much lower than zinc concentrations in biological samples.
# [3] = Quantum yield of fluorescence, metal free and Zn^2+ bound ligand; format: physicochemical; conditions: 50 mM PIPES, 100 mM KCl
# Text: Quantum yield, Φ, may be obtained by comparison of the integrated area of the corrected emission spectrum of the sample with that of a reference solution. A preferred reference solution is a solution of fluorescein in 0.1 N NaOH, quantum efficiency 0.95. The concentration of the reference is adjusted to match the absorbance, Abs, of the test sample. The quantum yields may be calculated using the following equation: […]
# The quantum yields of fluorescence were obtained by comparison of the integrated area of the corrected emission spectrum of the sample with that of a solution of fluorescein in 0.1 N NaOH, quantum efficiency 0.95. The concentration of the reference was adjusted to match the absorbance of the test sample. The quantum efficiency of the metal free ligand was measured using dilute sample of Formula 16 dye (˜1×10^−6 M, Abs≦0.1) in 10 mM PIPES, 100 mM KCl and 50 μM EDTA, pH=7.0. The quantum efficiency of the metal bound ligand was measured using a dilute sample of Formula 16 (˜8×10^−7 M, Abs≦0.1) in 10 mM PIPES, 100 mM KCl and 100 μM ZnCl2, pH=7.0. Emission for Formula 16 was integrated from 496 to 600 nm with excitation at 492 nm. The quantum yields were calculated with the following equation.
# as §4
# [4] = test system: intracellular Zn^2+ in HeLa cells; experiment: Detection of intracellular Zn^2+ by fluorescence microscopy; format: cell-based
# Description: (§5) The ability of a fluorescein-based ligand of Formula 16 to act as a sensor for intracellular Zn^2+ was tested in COS-7 (FIG. 5) and HeLa cells (FIG. 6), using a Formula 16. Both cell types were treated with 5 μM of the fluorescein-based ligand of Formula 16 for one hour at 37° C. […] Similar observations have been made using quinoline-based Zn^2+ probes in undifferentiated mammalian cells.
# (§6) Intracellular Zn^2+ concentrations were increased by incubating the cells with Zn^2+ in the presence of pyrithione, a Zn^2+ ionophore. […] Available Zn^2+ was decreased by treatment with the membrane permeable Zn^2+-chelator, TPEN.
# [5] = test system: intracellular Zn^2+ in COS-7 cells; experiment: as above; format: cell-based
# Description: as §5, §6
# [6] = Fluorescence response to other metal ions
# Description: (§7) Fluorescence spectra were recorded on a Hitachi F-3010 spectrofluorimeter under the control of a Pentium-based PC running the SpectraCalc software package. Excitation was provided by a 150 W Xe lamp (Ushio Inc.) operating at a current of 5 A. All spectra were normalized for excitation intensity via a rhodamine quantum counter, and emission spectra were normalized by the manufacturer-supplied correction curves. Spectra were routinely acquired at 25° C., maintained by a circulating water bath in 1 cm×1 cm quartz cuvettes using 3 nm slit widths and a 240 nm/min scan speed. Fluorescence emission measurements were also acquired in a 1 cm×1 cm quartz cell using a Spex Fluorolog-2 instrument with 1 nm bandwidth slits. All spectra were corrected for emission intensity using the manufacturer-supplied photomultiplier curves. Spectra were routinely acquired at 25° C., maintained by a circulating water bath.
# as §4
# [7] = Fluorescence Zn^2+ binding titration (Kd) in Ca^2+/EDTA/Zn^2+ buffers; conditions: 1 mM EDTA, 2 mM Ca^2+, 0–1 mM total Zn^2+
# Description: The first Kd associated with Zn^2+ binding was measured by a fluorescence titration as described previously. Spectra of the fluorescence of the ligand of Formula 16 were acquired by exciting at 490 nm and collecting and integrating from 500–575 nm. The measurements were performed in triplicate to ensure accuracy of the Kd value.
# as §1
# as §2, with “nM.” for “nM. The measurements indicate that Formula 16 has a Kd of 0.5±0.1 nM (mean ±esd), obtained by a hyperbolic fit to the plot of the area under each fluorescence peak versus the Zn2+ concentration at which it was measured (FIG. 3, right panel).”
# [8] = Absorption titration, second Zn^2+ binding event (Kd2); conditions: physiologically relevant pH
# Description: as §3
# The binding of Zn^2+ by a fluorescein-based ligand of Formula 16 is accompanied by changes in the absortion spectra. […] Addition of greater than one equivalent of Zn^2+ produces small changes in the absorption spectra of the ligand. The change fits to a Kd2 of 10±2 μM (486 nm), and decreases to 7.5±2.5 μM (508 nm).
# [9] = pH dependent fluorescence (apparent fluorescence pKa); format: physicochemical
# Description: The apparent fluorescence pKa was measured by plotting the integrated area of the emission spectrum against the pH recorded from pH=12.5–2.5. A 1 μM solution of the ligand of Formula 16 (10 mLs) containing ˜1 mM KOH and 100 mM KCl was adjusted to pH 12.5 and the UV-vis and fluorescence spectra were recorded. The pH was lowered in steps of ΔpH=0.5 with the addition of appropriate amounts of 6 N, 2 N, 0.5 N, 1 N, 0.1 N and 0.01 N HCl recording the absorption and emission spectra at each pH interval. The volume of the solution was controlled so the overall change in volume was <2%. Emission for the fluorescein-based ligand of […] was integrated from 500 to 700 nm. The resulting integrated emission areas were normalized, plotted against pH, and fit with the following nonlinear equation to calculate the pKa values. In the equation, ΔF1max and ΔF2max are the maximum fluorescence changes associated with the corresponding pKa values at the pH at which the maximum occurs.
# The fluorescence of the Formula 16 ligand is enhanced by protons. […] At high pH, the magnitude of Zn^2+-induced fluorescent enhancement is more dramatic, increasing over 200-fold at pH 12.
# [10] = Fluorescence response to Zn^2+
# Description: as §7, with “bath. […]” for “bath.”
# The fluorescence of the Formula 16 ligand is enhanced by protons. […]
# Under pseudo physiological conditions (50 mM PIPES, 100 mM KCl) at pH 7 in the presence of EDTA to scavenge advantageous metal ions, Formula 57 has a quantum yield of 0.06. […] The fluorescence of Formula 57 also appears to be pH dependent. These fluorescence results are preliminary and are not intended to limit the scope of the invention in any way.
# [11] = Lactone formation under aqueous conditions; format: physicochemical; conditions: even at high [Zn^2+] (200 μM)
# Description: Binding of the first Zn^2+ more efficiently interrupts the PET process and increases the band gap between the S0 and S1 energy levels. The Kd1 is lower than that of DPA because of the additional coordination by the phenolic oxygen. […] (200 μM). These conclusions are preliminary and are not intended to limit the scope of the invention in any way.
# [12] = pH 7, in the presence of EDTA (metal free)
# [13] = fit of integrated emission versus pH, 100 mM KCl
smiles,measurement,setting,value
[Zn+2].c1ccc(CNCc2ccccn2)nc1 [[Zn(DPA)]^2+],weaker binding than the ligand of Formula 16,[1],approximately 2 orders of magnitude
O=C1OC2(c3ccccc31)c1cc(Cl)c(O)c(CN(Cc3ccccn3)Cc3ccccn3)c1Oc1c2cc(Cl)c(O)c1CN(Cc1ccccn1)Cc1ccccn1 [Formula 31],excitation maximum,[2]; upon Zn^2+ complexation,507 nm
same,ε at excitation maximum,[2]; upon Zn^2+ complexation,84000 M⁻¹ cm⁻¹
same,quantum yield,[3]; [12],0.39
same,quantum yield,"[3]; pH 7, in the presence of Zn^2+ (concentration not given)",0.87
O=C1OC2(c3ccccc31)c1ccc(O)c(CN(Cc3ccccn3)Cc3ccccn3)c1Oc1c2ccc(O)c1CN(Cc1ccccn1)Cc1ccccn1 [Formula 16],excitation maximum,[2]; before Zn^2+ complexation,498 nm
same,ε at excitation maximum,[2]; before Zn^2+ complexation,36800 M⁻¹ cm⁻¹
same,excitation maximum,[2]; upon Zn^2+ complexation,490 nm
same,ε at excitation maximum,[2]; upon Zn^2+ complexation,44900 M⁻¹ cm⁻¹
same,fluorescent staining of cells,"[4]; 5 μM ligand, one hour at 37° C.",bright fluorescent staining
same,fluorescent signal after Zn^2+ chelation,[4]; TPEN,decreased the fluorescent signal
same,fluorescent signal after raising intracellular Zn^2+,[4]; Zn^2+ with pyrithione,increase in the fluorescent signal
same,fluorescent staining of cells,"[5]; 5 μM ligand, one hour at 37° C., particularly perinuclear region (Golgi)",bright fluorescent staining
same,fluorescent signal after Zn^2+ chelation,[5]; TPEN,decreased the fluorescent signal
same,fluorescent signal after raising intracellular Zn^2+,[5]; Zn^2+ with pyrithione,increase in the fluorescent signal
same,change in fluorescence intensity,[6]; Ca^2+,no measurable change in intensity
same,effect on fluorescence,[6]; Cd^2+,increase in fluorescence
same,effect on fluorescence,[6]; Co^2+,quench fluorescence
same,effect on fluorescence,[6]; Cu^2+,quench fluorescence
same,effect on fluorescence,[6]; Fe^2+,quench fluorescence
same,change in fluorescence intensity,[6]; Mg^2+,no measurable change in intensity
same,effect on fluorescence,[6]; Mn^2+,quench fluorescence
same,effect on fluorescence,[6]; Ni^2+,quench fluorescence
same,increase of integrated emission on Zn^2+ binding,[7],6.0 fold
same,increase of quantum yield on Zn^2+ binding,[7],~3.7 fold
same,fluorescence change at the second binding event,[8],not associated with a measurable change in fluorescence
same,pH of maximum fluorescence,[9],~5.5
same,"apparent pKa,1",[9]; [13],3.9
same,"apparent pKa,2",[9]; [13],9.4
same,fluorescence at high pH,[9]; pH>12,almost completely quenched
same,selectivity of the fluorescence response,[10]; compared with other metal ions,Zn^2+ selective
same,Zn^2+-induced fluorescent enhancement,[10]; pH 12,over 200 fold
same,lactone formation,[11],no lactone formation
same,quantum yield,"[3]; pH 7, in the presence of 25 μM Zn^2+",0.92
same,quantum yield,[3]; [12],0.25
